Reference: patent US7094909B2, “HIV protease inhibitors, compositions containing the same, their pharmaceutical uses and materials for their synthesis” (priority 2001, dated 2006)

How the values were obtained:
[1] = biological target: T1, HIV-1 protease (Q7S mutant form) (Human immunodeficiency virus type 1 group M subtype B, UniProt P04585, Q495S); assay: HIV-1 Protease RET assay; assay type: biochemical; conditions: Ave. Ki (nM), RET assay, Q7S enzyme, Morrison tight binding fit
T1 construct: made in house
How it was run: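 Q7S HIV-1 protease, refolded from urea, 2 nM active dimer with 5 μM EDANS/DABCYL peptide cleaved at Tyr-Pro; fluorescence 340/490 nm. 12 min at 37 °C in 0.1M sodium acetate pH 4.8, 1M NaCl, 10% DMSO. Ki from Morrison tight-binding fit.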

[2] = tested on: HIV-1 (HIV-1 RF, HIV-1 NL4-3) in CEM-SS / MT-2 cells; assay: Cytopathic effect (CPE) inhibition assay (XTT/MTT dye reduction); assay type: cell-based; conditions: Human immunodeficiency virus 1, NL43; read-out: Ave CPE EC50
How it was run: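 CEM-SS or MT-2 cells were infected with HIV-1 RF or NL4-3 (moi 0.025–0.819) and plated at 2×10^4 cells/well with half-log compound dilutions for 6 days. Viability was read by XTT formazan at 450 nm after 4 h. EC50 restores formazan to 50% of uninfected untreated cells, CC50 halves it in uninfected cells, and TI = CC50/EC50.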

Compound	Ki [1]	EC50 [2]
Cc1ccccc1CNC(=O)[C@H]1N(C(=O)[C@@H](O)[C@H](Cc2ccccc2)NC(=O)OC(C)C)CSC1(C)C [Example B16, {(S)-1-Benzyl-3-[5,5-dimethyl-4-(2-methyl-benzylcarbamoyl)-thiazolidin-3-yl]-2-hydroxy-3-oxo-propyl}-carbamic acid isopropyl ester]	2.6 nM	1570 nM
C#CCCC(=O)N[C@@H](Cc1ccccc1)[C@H](O)C(=O)N1CSC(C)(C)[C@H]1C(=O)NCc1ccccc1C [Example B18, (R)-3-((2S,3S)-2-Hydroxy-3-pent-4-ynoylamino-4-phenyl-butyryl)-5,5-dimethyl-thiazolidine-4-carboxylic acid 2-methyl-benzylamide]	0.56 nM	1250 nM
C=CCNC(=O)[C@H]1N(C(=O)[C@@H](O)[C@H](Cc2ccccc2)NC(=O)O[C@H]2CCOC2)CSC1(C)C [Example B22, [(1S,2S)-3-((R)-4-Allylcarbamoyl-5,5-dimethyl-thiazolidin-3-yl)-1-benzyl-2-hydroxy-3-oxo-propyl]-carbamic acid (S)-(tetrahydro-furan-3-yl) ester]	12 nM	246 nM
C=CCNC(=O)[C@H]1N(C(=O)[C@@H](O)[C@H](Cc2ccccc2)NC(=O)COc2c(C)cccc2C)CSC1(C)C [Example B23, (R)-3-{(2S,3S)-3-[2-(2,6-Dimethyl-phenoxy)-ethanoylamino]-2-hydroxy-4-phenyl-butanoyl}-5,5-dimethyl-thiazolidine-4-carboxylic acid allylamide]	0.15 nM	294 nM
C=CCNC(=O)[C@H]1N(C(=O)[C@@H](O)[C@H](Cc2ccccc2)NC(=O)c2cccc3[nH]ncc23)CSC1(C)C [Example B24, 1-H-indazole-4-carboxylic acid [3-(4-allylcarbamoyl-5,5-dimethyl-thiazolidin-3-yl)-1-benzyl-2-hydroxy-3-oxo-propyl]-amide]	8.3 nM	512 nM
C=CCNC(=O)[C@H]1N(C(=O)[C@@H](O)[C@H](Cc2ccccc2)NC(=O)CSc2nc[nH]n2)CSC1(C)C [Example B25, (R)-3-{(2S,3S)-2-Hydroxy-4-phenyl-3-[2-(1H-[1,2,4]triazol-3-ylsulfanyl)-ethanoylamino]-butanoyl}-5,5-dimethyl-thiazolidine-4-carboxylic acid allylamide]	21 nM	> 1000 nM
CC1(C)SCN(C(=O)[C@@H](O)[C@H](Cc2ccccc2)NC(=O)O[C@H]2CCOC2)[C@@H]1C(=O)NCC1CC1 [Example B26, {(1S,2S)-1-Benzyl-3-[(R)-4-(cyclopropylmethyl-carbamoyl)-5,5-dimethyl-thiazolidin-3-yl]-2-hydroxy-3-oxo-propyl}-carbamic acid (S)-(tetrahydro-furan-3-yl) ester]	2.1 nM	348 nM
Cc1cccc(C)c1OCC(=O)N[C@@H](Cc1ccccc1)[C@H](O)C(=O)N1CSC(C)(C)[C@H]1C(=O)NCC1CC1 [Example B27, (R)-3-{(2S,3S)-3-[2-(2,6-Dimethyl-phenoxy)-ethanoylamino]-2-hydroxy-4-phenyl-butanoyl}-5,5-dimethyl-thiazolidine-4-carboxylic acid cyclopropylmethyl-amide]	0.5 nM	506 nM
CC1(C)SCN(C(=O)[C@@H](O)[C@H](Cc2ccccc2)NC(=O)c2cccc3c2CCN3)[C@@H]1C(=O)NCC1CC1 [Example B28, 2,3-Dihydro-1H-indole-4-carboxylic acid {(1S,2S)-1-benzyl-3-[(R)-4-(cyclopropylmethyl-carbamoyl)-5,5-dimethyl-thiazoldin-3-yl]-2-hydroxy-3-oxo-propyl}-amide]	4.2 nM	731 nM
CC1(C)SCN(C(=O)[C@@H](O)[C@H](Cc2ccccc2)NC(=O)c2cccc3c2CCN3)[C@@H]1C(=O)N[C@H]1CCOc2ccccc21 [Example B29, 2,3-Dihydro-1H-indole-4-carboxylic acid {(1S,2S)-1-benzyl-3-[(R)-4-((S)-chroman-4-ylcarbamoyl)-5,5-dimethyl-thiazolidin-3-yl]-2-hydroxy-3-oxo-propyl}-amide]	0.82 nM	63 nM
CC1(C)SCN(C(=O)[C@@H](O)[C@H](Cc2ccccc2)NC(=O)CSc2nc[nH]n2)[C@@H]1C(=O)N[C@H]1CCOc2ccccc21 [Example B31, (R)-3-{(2S,3S)-2-Hydroxy-4-phenyl-3-[2-(1H-[1,2,4]triazol-3-ylsulfanyl)-ethanoylamino]-butanoyl}-5,5-dimethyl-thiazolidine-4-carboxylic acid (S)-chroman-4-ylamide]	4.7 nM	> 1000 nM
C#CCNC(=O)[C@H]1N(C(=O)[C@@H](O)[C@H](Cc2ccccc2)NC(=O)c2cccc3c2CCN3)CSC1(C)C [Example B34, 2,3-Dihydro-1H-indole-4-carboxylic acid [(1S,2S)-1-benzyl-3-((R)-5,5-dimethyl-4-prop-2-ynylcarbamoyl-thiazoldin-3-yl)-2-hydroxy-3-oxo-propyl]-amide]	1.2 nM	389 nM
C#CCNC(=O)[C@H]1N(C(=O)[C@@H](O)[C@H](Cc2ccccc2)NC(=O)c2cccc3[nH]ncc23)CSC1(C)C [Example B35, 1-H-indazole-4-carboxylic acid [1-benzyl-3-(5,5-dimethyl-4-prop-2-ynylcarbamoyl-thiazolidin-3-yl)-2-hydroxy-3-oxo-propyl]-amide]	11 nM	564 nM
C#CCNC(=O)[C@H]1N(C(=O)[C@@H](O)[C@H](Cc2ccccc2)NC(=O)COc2c(C)cccc2C)CSC1(C)C [Example B36, (R)-3-{(2S,3S)-3-[2-(2,6-Dimethyl-phenoxy)-ethanoylamino]-2-hydroxy-4-phenyl-butanoyl}-5,5-dimethyl-thiazolidine-4-carboxylic acid prop-2-ynylamide]	< 0.1 nM	519 nM
CC1(C)SCN(C(=O)[C@@H](O)[C@H](Cc2ccccc2)NC(=O)c2cccc3[nH]ncc23)[C@@H]1C(=O)NCc1ccco1 [Example B37, 1-H-indazole-4-carboxylic acid (1-benzyl-3-{4[(furan-2-ylmethyl)-carbamoyl]-5,5-dimethyl-thiazolidin-3-yl}-2-hydroxy-3-oxo-propyl)-amide]	7.4 nM	529 nM
Cc1cccc(C)c1OCC(=O)N[C@@H](Cc1ccccc1)[C@H](O)C(=O)N1CSC(C)(C)[C@H]1C(=O)NCc1ccco1 [Example B38, (R)-3-{(2S,3S)-3-[2-(2,6-Dimethyl-phenoxy)-ethanoylamino]-2-hydroxy-4-phenyl-butanoyl}-5,5-dimethyl-thiazolidine-4-carboxylic acid (furan-2-ylmethyl)-amide]	0.16 nM	600 nM
CC1(C)SCN(C(=O)[C@@H](O)[C@H](Cc2ccccc2)NC(=O)c2cccc3c2CCN3)[C@@H]1C(=O)NCc1ccco1 [Example B39, 2,3-Dihydro-1H-indole-4-carboxylic acid ((1S,2S)-1-benzyl-3-{(R)-4-[(furan-2-ylmethyl)-carbamoyl]-5,5-dimethyl-thiazolidin-3-yl}-2-hydroxy-3-oxo-propyl)-amide]	1.9 nM	372 nM
CC1(C)SCN(C(=O)[C@@H](O)[C@H](Cc2ccccc2)NC(=O)[C@@H]2CCCO2)[C@@H]1C(=O)NCc1ccco1 [Example B40, (R)-3-{(2S,3S)-2-Hydroxy-4-phenyl-3-[((S)-1-tetrahydro-furan-2-yl-methanoyl)-amino]-butanoyl}-5,5-dimethyl-thiazolidine-4-carboxylic acid (furan-2-ylmethyl)-amide]	15.1 nM	> 1000 nM
